In US20090062253A1, “HETEROCYCLODIAZEPINE CANNABINOID RECEPTOR MODULATORS FOR TREATMENT OF DISEASE” (KALYPSYS, INC., priority 2007, published 2009):

Experiments:
[1] = biological target: T1, human cannabinoid receptor type 1 (Homo sapiens, UniProt P21554); assay: Human CB1 Radioligand Binding Assay (basis of selectivity CB2 vs. CB1)
T1 construct: purchased Perkin Elmer RBHCB1M; host or cells: HEK 293 EBNA cells
Outline: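 Filtration competition binding against [3H] CP-55,940 at its Kd, using membranes from HEK 293 EBNA cells expressing human CB1; 90 minutes at 30° C in 50 mM Tris-HCl pH 7.4, 2.5 mM EDTA, 5 mM MgCl2, 5.0 mg/ml BSA, 1% DMSO. Single point 10 uM or dose-response; 100 nM CP-55,940 defined 100% efficacy.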

Human CB2 = biological target: T2, Human CB2 (Homo sapiens, UniProt P34972); assay: Human CB2 Radioligand Binding Assay; conditions: membranes from stably transfected CHO CB2 cells; competition with [3H] CP-55,940; read-out: CB2 Ligand Binding Asssay
T2 construct: expressed in transfected cells; membrane preparation
T2 sequence (P34972 whole entry): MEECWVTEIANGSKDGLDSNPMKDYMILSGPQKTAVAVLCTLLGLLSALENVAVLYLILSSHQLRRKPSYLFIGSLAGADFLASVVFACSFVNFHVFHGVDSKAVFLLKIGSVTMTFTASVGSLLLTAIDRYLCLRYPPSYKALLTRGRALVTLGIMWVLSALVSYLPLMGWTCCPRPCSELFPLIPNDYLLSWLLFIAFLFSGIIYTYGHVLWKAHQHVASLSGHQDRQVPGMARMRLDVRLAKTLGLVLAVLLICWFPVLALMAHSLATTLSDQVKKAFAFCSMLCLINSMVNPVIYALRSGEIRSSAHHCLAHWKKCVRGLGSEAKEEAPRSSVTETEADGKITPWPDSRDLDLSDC
Outline: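 Filtration competition against [3H]CP-55,940 at its Kd on membranes from CHO cells stably expressing human CB2; compounds at 10 uM single point or dose-response, 1% DMSO. Buffer 50 mM Tris-HCl pH 7.4, EGTA, MgCl2, 5.0 mg/ml BSA; 90 min at 30° C, scintillation read; 100 nM CP-55,940 = 100%.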

T1 sequence (P21554 whole entry): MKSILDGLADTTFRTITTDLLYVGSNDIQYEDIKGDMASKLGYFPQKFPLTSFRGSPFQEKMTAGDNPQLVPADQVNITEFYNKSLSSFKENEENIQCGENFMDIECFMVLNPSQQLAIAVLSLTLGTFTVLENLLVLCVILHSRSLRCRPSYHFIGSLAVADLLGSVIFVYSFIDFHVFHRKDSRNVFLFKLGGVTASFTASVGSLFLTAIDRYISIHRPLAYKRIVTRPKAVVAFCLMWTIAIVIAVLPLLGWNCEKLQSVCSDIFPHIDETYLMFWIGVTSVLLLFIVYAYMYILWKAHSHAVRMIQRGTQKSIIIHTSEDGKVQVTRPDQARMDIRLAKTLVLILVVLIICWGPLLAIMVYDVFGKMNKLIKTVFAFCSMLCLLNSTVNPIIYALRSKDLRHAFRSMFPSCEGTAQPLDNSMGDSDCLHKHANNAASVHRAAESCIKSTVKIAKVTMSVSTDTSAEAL

| SMILES | Selectivity, CB2 vs. CB1 [1] | IC50 (radioligand displacement) (Human CB2) [µM] |
| --- | --- | --- |
| CC(C)(C)c1ccc(C2=C(NC(=O)Nc3ccc(Cl)cc3Cl)CCCn3cccc32)cc1 [Example 86, (E)-1-(9-(4-tert-Butylphenyl)-6,7-dihydro-5H-pyrrolo[1,2-a]azepin-8-yl)-3-(2,4-dichlorophenyl)urea] | + (+ indicates > 10-fold) | < 1 |
| CC(C)(C)c1ccc(C2c3nccn3CCCN2C(=O)Nc2ccc(F)c(F)c2)cc1 (stereo not shown) [Example 28, 9-(4-tert-Butylphenyl)-N-(3,4-difluorophenyl)-6,7-dihydro-5H-imidazo[1,2-a][1,4]diazepine-8(9H)-carboxamide] | + (+ indicates > 10-fold) | < 1 |
| CC(C)(C)c1ccc(C2c3cccn3CCC2C(=O)Nc2ccc(C(F)(F)F)cc2)cc1 (stereo not shown) [Example 96, 8-(4-tert-Butylphenyl)-N-(4-(trifluoromethyl)phenyl)-5,6,7,8-tetrahydroindolizine-7-carboxamide] | − (− indicates < 10-fold) | > 1 |
| O=C(Nc1ccc(F)cc1F)N1CCn2cccc2C1c1ccccc1 (stereo not shown) [Example 5, N-(2,4-Difluorophenyl)-1-phenyl-3,4-dihydropyrrolo[1,2-a]pyrazine-2(1H)-carboxamide] | + (+ indicates > 10-fold) | > 1 |
| O=C(Nc1ccc(F)cc1F)N1CCCn2cccc2C1c1ccccc1 (stereo not shown) [Example 12, N-(2,4-Difluorophenyl)-1-phenyl-4,5-dihydro-1H-pyrrolo[1,2-a][1,4]diazepine-2(3H)-carboxamide] | − (− indicates < 10-fold) | > 1 |
| CC(C)(C)c1ccc(C2c3cccn3CCCC2C(=O)Nc2ccc(F)c(F)c2)cc1 (stereo not shown) [Example 91, 9-(4-tert-Butylphenyl)-N-(3,4-difluorophenyl)-6,7,8,9-tetrahydro-5H-pyrrolo[1,2-a]azepine-8-carboxamide] | + (+ indicates > 10-fold) | < 1 |
| CC(C)(C)c1ccc(C2=C(C(=O)Nc3ccc(Cl)cc3)CCCn3cncc32)cc1 [Example 77, (E)-9-(4-tert-Butylphenyl)-N-(4-chlorophenyl)-6,7-dihydro-5H-imidazo[1,5-a]azepine-8-carboxamide] | − (− indicates < 10-fold) | > 1 |
| CC(C)(C)c1ccc(C2=C(C(=O)Nc3ccc(Cl)cc3Cl)CCCn3cccc32)cc1 [Example 63, (E)-9-(4-tert-Butylphenyl)-N-(2,4-dichlorophenyl)-6,7-dihydro-5H-pyrrolo[1,2-a]azepine-8-carboxamide] | − (− indicates < 10-fold) | < 1 |
| CC(C)(C)c1ccc(C2=C(C(=O)Nc3ccc(F)c(F)c3)CCCn3cccc32)cc1 [Example 65, (E)-9-(4-tert-Butylphenyl)-N-(3,4-difluorophenyl)-6,7-dihydro-5H-pyrrolo[1,2-a]azepine-8-carboxamide] | + (+ indicates > 10-fold) | < 1 |
| CC(C)(C)c1ccc(C2c3cccn3CCN2C(=O)Nc2ccc(F)cc2F)cc1 (stereo not shown) [Example 2, 1-(4-tert-Butylphenyl)-N-(2,4-difluorophenyl)-3,4-dihydropyrrolo[1,2-a]pyrazine-2(1H)-carboxamide] | + (+ indicates > 10-fold) | < 1 |
| CC(C)(C)c1ccc(C2c3nccn3CCCN2C(=O)Nc2ccc(F)cc2F)cc1 (stereo not shown) [Example 27, 9-(4-tert-Butylphenyl)-N-(2,4-difluorophenyl)-6,7-dihydro-5H-imidazo [1,2-a][1,4]diazepine-8(9H)-carboxamide] | + (+ indicates > 10-fold) | < 1 |
| CC(C)(C)C1CCC(C2c3cccn3CCCN2C(=O)c2ccc(F)cc2F)CC1 (stereo not shown) [Example 45, (1-(4-tert-Butylcyclohexyl)-4,5-dihydro-1H-pyrrolo[1,2-a][1,4]diazepin-2(3H)-yl)(2,4-difluorophenyl)methanone] | − (− indicates < 10-fold) | < 1 |
| CC(C)(C)c1ccc(C2c3nccn3CCCN2C(=O)Nc2ccc(Cl)cc2Cl)cc1 (stereo not shown) [Example 29, 9-(4-tert-Butylphenyl)-N-(2,4-dichlorophenyl)-6,7-dihydro-5H-imidazo[1,2-a][1,4]diazepine-8(9H)-carboxamide] | − (− indicates < 10-fold) | > 1 |
| CC(C)(C)c1ccc(C2c3cccn3CCCN2C(=O)Nc2ccc(F)cc2F)cc1 (stereo not shown) [Example 7, 1-(4-tert-Butylphenyl)-N-(2,4-difluorophenyl)-4,5-dihydro-1H-pyrrolo[1,2-a][1,4]diazepine-2(3H)-carboxamide] | + (+ indicates > 10-fold) | < 1 |
| O=C(Nc1ccc(Cl)cc1)C1CCn2cccc2C1c1ccccc1 (mixture of isomers) [Example 102, N-(4-Chlorophenyl)-8-phenyl-5,6,7,8-tetrahydroindolizine-7-carboxamide] | − (− indicates < 10-fold) | > 1 |
| CC(C)(C)c1ccc(C2c3cccn3CCCN2c2nc3ccccc3o2)cc1 (stereo not shown) [Example 53, 2-(1-(4-tert-Butylphenyl)-4,5-dihydro-1H-pyrrolo[1,2-a][1,4]diazepin-2(3H)-yl)benzo[d]oxazole] | − (− indicates < 10-fold) | > 1 |

More lines, now with the values ahead:

| Selectivity, CB2 vs. CB1 [1] | IC50 (radioligand displacement) (Human CB2) [µM] | SMILES |
| --- | --- | --- |
| − (− indicates < 10-fold) | > 1 | CC(C)(C)c1ccc(CC2[C@@H]3CCCN3CCCN2C(=O)Nc2ccc(F)cc2)cc1 (mixture of isomers) [Example 127, (9aS)-1-(4-tert-Butylbenzyl)-N-(4-fluorophenyl)hexahydro-1H-pyrrolo[1,2-a][1,4]diazepine-2(3H)-carboxamide] |
| − (− indicates < 10-fold) | > 1 | CC(C)(C)c1ccc(C2c3cccn3CCCC2NC(=O)Nc2ccc(Cl)c(Cl)c2)cc1 (single isomer, unassigned) [Example 120, 1-(9-(4-tert-Butylphenyl)-6,7,8,9-tetrahydro-5H-pyrrolo[1,2-a]azepin-8-yl)-3-(3,4-dichlorophenyl)urea] |
| − (− indicates < 10-fold) | < 1 | CC(C)(C)c1ccc(C2c3cccn3CCCC2NC(=O)Nc2ccc(F)cc2F)cc1 (mixture of isomers) [Example 116, 1-(9-(4-tert-Butylphenyl)-6,7,8,9-tetrahydro-5H-pyrrolo[1,2-a]azepin-8-yl)-3-(2,4-difluorophenyl)urea] |
| + (+ indicates > 10-fold) | < 1 | CC(C)(C)c1ccc(C2[C@@H]3CCCN3CCCN2C(=O)Nc2ccc(F)c(F)c2)cc1 (stereo partly drawn) [Example 130, (9aS)-1-(4-tert-Butylphenyl)-N-(3,4-difluorophenyl)hexahydro-1H-pyrrolo[1,2-a][1,4]diazepine-2(3H)-carboxamide] |
| + (+ indicates > 10-fold) | > 1 | CC(C)(C)c1ccc(C2c3cccnc3CCCN2C(=O)Nc2ccc(Cl)cc2Cl)cc1 (stereo not shown) [Example 136, 5-(4-tert-Butylphenyl)-N-(2,4-dichlorophenyl)-8,9-dihydro-5H-pyrido[3,2-c]azepine-6(7H)-carboxamide] |
| − (− indicates < 10-fold) | > 1 | CC(C)(C)c1ccc(C2c3cccn3CCCC2NC(=O)Nc2ccc(Cl)cc2Cl)cc1 (single isomer, unassigned) [Example 119, 1-(9-(4-tert-Butylphenyl)-6,7,8,9-tetrahydro-5H-pyrrolo[1,2-a]azepin-8-yl)-3-(2,4-dichlorophenyl)urea] |
| − (− indicates < 10-fold) | > 1 | CC(C)(C)c1ccc(CC2[C@@H]3CCCN3CCCN2C(=O)Nc2ccc(F)cc2F)cc1 (mixture of isomers) [Example 124, (9aS)-1-(4-tert-Butylbenzyl)-N-(2,4-difluorophenyl)hexahydro-1H-pyrrolo[1,2-a][1,4]diazepine-2(3H)-carboxamide] |
| − (− indicates < 10-fold) | > 1 | O=C(Nc1ccc(C(F)(F)F)cc1)[C@H]1CCCn2cccc2[C@@H]1c1ccccc1 (relative stereo) [Example 111, (8,9-trans)-9-Phenyl-N-(4-(trifluoromethyl)phenyl)-6,7,8,9-tetrahydro-5H-pyrrolo[1,2-a]azepine-8-carboxamide] |
| − (− indicates < 10-fold) | > 1 | CC(C)(C)c1ccc(CC2[C@@H]3CCCN3CCCN2C(=O)Nc2ccccc2)cc1 (mixture of isomers) [Example 126, (9aS)-1-(4-tert-Butylbenzyl)-N-phenylhexahydro-1H-pyrrolo[1,2-a][1,4]diazepine-2(3H)-carboxamide] |
| − (− indicates < 10-fold) | > 1 | O=C(Nc1ccc(OC(F)(F)F)cc1)C1CCCn2cccc2C1c1ccccc1 (single isomer, unassigned) [Example 113, (8,9-trans)-9-Phenyl-N-(4-(trifluoromethoxy)phenyl)-6,7,8,9-tetrahydro-5H-pyrrolo[1,2-a]azepine-8-carboxamide] |
